Assay results as given in the supplement of paper PMC10307832.

What was measured:
Test in all cases: relative viability (nuclei count vs DMSO), 5 days (fraction); higher = more cells survive
Vismodegib + Trametinib = compound: CS(=O)(=O)c1ccc(C(=O)Nc2ccc(Cl)c(-c3ccccn3)c2)c(Cl)c1 [Vismodegib] + CC(=O)Nc1cccc(-n2c(=O)n(C3CC3)c(=O)c3c(Nc4ccc(I)cc4F)n(C)c(=O)c(C)c32)c1 [Trametinib] (partner 0.02 µM)
How it was run: (§1)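 Relative viability equals treated-well nuclei counts divided by vehicle-well nuclei counts. Counts came from 4× images of lung cancer cell lines grown in 1536-well plates for 5 days after pin-tool dosing on the day after seeding. Dosing used one drug alone or a fixed anchor-drug dose plus five library-drug doses (not always all listed) in √10 steps, and values are medians of duplicate plates.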

Vismodegib + Alpelisib = compound: CS(=O)(=O)c1ccc(C(=O)Nc2ccc(Cl)c(-c3ccccn3)c2)c(Cl)c1 [Vismodegib] + Cc1nc(NC(=O)N2CCC[C@H]2C(N)=O)sc1-c1ccnc(C(C)(C)C(F)(F)F)c1 [Alpelisib] (partner 2 µM)
How it was run: as §1

Vismodegib + Tozasertib = compound: CS(=O)(=O)c1ccc(C(=O)Nc2ccc(Cl)c(-c3ccccn3)c2)c(Cl)c1 [Vismodegib] + Cc1cc(Nc2cc(N3CCN(C)CC3)nc(Sc3ccc(NC(=O)C4CC4)cc3)n2)n[nH]1 [Tozasertib] (partner 0.1 µM)
How it was run: as §1

Vismodegib + Palbociclib = compound: CS(=O)(=O)c1ccc(C(=O)Nc2ccc(Cl)c(-c3ccccn3)c2)c(Cl)c1 [Vismodegib] + CC(=O)c1c(C)c2cnc(Nc3ccc(N4CCNCC4)cn3)nc2n(C2CCCC2)c1=O [Palbociclib] (partner 0.5 µM)
How it was run: as §1

## UMC-11
Vismodegib + Trametinib; first compound 0.08 µM
  relative viability: 0.422
Vismodegib + Trametinib; first compound 0.253 µM
  relative viability: 0.669
Vismodegib + Trametinib; first compound 0.8 µM
  relative viability: 0.609
Vismodegib + Trametinib; first compound 2.53 µM
  relative viability: 0.618
Vismodegib + Trametinib; first compound 8 µM
  relative viability: 0.375
Vismodegib + Alpelisib; first compound 0.08 µM
  relative viability: 1.01
Vismodegib + Alpelisib; first compound 0.253 µM
  relative viability: 1.01
Vismodegib + Alpelisib; first compound 0.8 µM
  relative viability: 1.05
Vismodegib + Alpelisib; first compound 2.53 µM
  relative viability: 0.957
Vismodegib + Alpelisib; first compound 8 µM
  relative viability: 0.952
Vismodegib + Tozasertib; first compound 0.08 µM
  relative viability: 0.184
Vismodegib + Tozasertib; first compound 0.253 µM
  relative viability: 0.196
Vismodegib + Tozasertib; first compound 0.8 µM
  relative viability: 0.168
Vismodegib + Tozasertib; first compound 2.53 µM
  relative viability: 0.194
Vismodegib + Tozasertib; first compound 8 µM
  relative viability: 0.225
Vismodegib + Palbociclib; first compound 0.08 µM
  relative viability: 0.343
Vismodegib + Palbociclib; first compound 0.253 µM
  relative viability: 0.346
Vismodegib + Palbociclib; first compound 0.8 µM
  relative viability: 0.298
Vismodegib + Palbociclib; first compound 2.53 µM
  relative viability: 0.351
Vismodegib + Palbociclib; first compound 8 µM
  relative viability: 0.344
